Assays:
human trehalase = assay: Degradation by human trehalase (cell extract liquids of KP4 and KP4-TREH, LC-MS persistence rate); type: in vitro ADME; conditions: 20 μg/mL, 37° C., up to 24 hours; for degradation by cell extract liquid of human pancreatic cancer cells KP4: control cells
Description: In order to perform a degradation experiment with human trehalase, high expression strains of the same were made.
This plasmid was introduced into various kinds of cultured human cells using Viafect (manufactured by Promega), and the expression level of transient trehalase protein was analyzed by western blotting with 1/2,000-diluted anti-trehalase antibody (manufactured by Santa Cruz). […] Human pancreatic cancer cells KP4 into which pSF-TREH 3-3 plasmid had been introduced as described above was diluted to one cell or less per well, and applied to a 96-well microplate. They were cultured on DMEM culture medium containing 400 μg/mL of G418 (manufactured by Thermo Fisher Scientific), and clones with stable trehalase expression were selected and amplified. Ten strains of KP4-TREH which were the clones with the highest trehalase expression were chosen for use in the subsequent experiments.
Degradation of 4-trehalosamine and trehalose by cell extract liquids of human pancreatic cancer cells KP4 and 10 strains of KP4-TREH, which are cells with high human trehalase expression, was examined.
Using DMEM culture medium, each of the human pancreatic cancer cells KP4 and the 10 strains of KP4-TREH was amplified in a CO2 incubator at 37° C. until they were confluent. After that, the culture medium was removed and washed with PBS (manufactured by Takara Bio Inc.) three times, and cells were collected with a cell scraper in the PBS. After centrifuging the collected cell suspension at 400×g for 3 minutes and removing supernatant, 135 mM citric acid buffer solution (pH 5.7) containing 0.5% Triton (registered trademark) in an amount 15 times the precipitated cells was added and homogenized. The cells were centrifuged at 21,300×g for 10 minutes and the respective supernatants were collected. Aqueous solution of 4-trehalosamine or aqueous solution of trehalose was added at 20 μg/mL to each supernatant and they were left to stand at 37° C. At 0 hours, 2 hours, 8 hours, or 24 hours from the start of reaction, the reaction solutions were collected, was diluted with methanol to 1/10, and centrifuged at 21,300×g for 10 minutes. The respective supernatants were collected and LC-MS analysis was performed under similar conditions to test example 1 to determine the persistence rates of 4-trehalosamine and trehalose in the reaction solution (4TA C) of 4-trehalosamine and the cell extract liquid of human pancreatic cancer cells KP4, the reaction solution (4TA T) of 4-trehalosamine and the cell extract liquid of 10 strains of KP4-TREH, the reaction solution (TRH C) of trehalose and the cell extract liquid of human pancreatic cancer cells KP4, and the reaction solution (TRH T) of trehalose and the cell extract liquid of 10 strains of KP4-TREH.

blood glucose level = assay: Change in blood glucose level after oral administration to mice; type: in vivo, ICR mice; conditions: single oral dose 0.5 mg per g of body weight, fasted
Description: 4-trehalosamine or trehalose dissolved in saline at 0.5 mg/10 μL per g of body weight was orally administered in a single dose to ICR mice (9-week to 10-week old, female, n=5) that had been fasted overnight. The five mice on which the same treatment had been performed were placed in the same cage.
In a 96-well plate, the centrifuged supernatant sample of dilution of blood with methanol prepared in <Determination of blood level of 4-trehalosamine> (a sample similar to the sample used in the LC-MS analysis) was placed at 5 µL/well and dried by suction with a vacuum pump. After that, it was dissolved in 25 μL of water, 75 μL of Glucose assay reagent (manufactured by Sigma-Aldrich) was added, and the solution was left to stand at 37° C. for 1 hour. Absorbance at 340 nm was then measured with a plate reader Cytation 5 (manufactured by Bio Tek Instruments) and the amount of glucose estimated.

Bacillus subtilis 168 = assay: Evaluation of Bacillus subtilis protective activity in freeze-dried condition; type: cell-based; conditions: for Numbers of live bacterial cells (relative numbers): Bacillus subtilis freeze-dried with 6% aqueous solution (final concentration 3%), test sample 3 (FD) = 1
Description: Using test samples 1 to 5 containing Bacillus subtilis prepared in the following manner, microorganism-protective activity with trehalose or 4-trehalosamine in a freeze-dried condition was evaluated.
Frozen stock of Bacillus subtilis (Bacillus subtilis 168 (obtained from ATCC)) was inoculated in 10 mL of Luria-Bertani (LB) culture medium (manufactured by Difco) and cultured at 37° C. for 24 hours while shaking it at 220 rpm. After culture, it was centrifuged at 3,000×g for 5 minutes, washed once with 10 mL of water, and then suspended in 10 mL of water, thus obtaining Bacillus subtilis suspension. 50 μL of water was added to and mixed with 50 μL of this Bacillus subtilis suspension, and the mixture was left to stand at 4° C. for 20 hours, preparing control (NF).
After Bacillus subtilis suspension was prepared in a similar manner to test sample 1, 50 μL of 6% aqueous solution of trehalose was added to and mixed with 50 µL of the Bacillus subtilis suspension, and the mixture was frozen at −80° C. for 10 minutes. It was then freeze-dried for 20 hours with a freeze dryer (FLEXI-DRY, manufactured by FTS systems INC., Warminster) connected to a vacuum pump (P65D, manufactured by PHIL Sato Vac INC.), preparing freeze-dried product (TRH) of Bacillus subtilis with TRH.
Freeze-dried product (4TA) of Bacillus subtilis with 4TA was obtained in a similar manner to the preparation method of test sample 4 except that trehalose was changed to 4-trehalosamine (4TA) in the preparation method of test sample 4.
For test samples 1 and 2, serial suspensions were made by diluting them to 1/10 with water. 100 μL of water was added to each of the freeze-dried products of test samples 3 to 5 and diluted to 1/10 with water to make their serial suspensions. […]
Wells in which the number of colonies was measurable were selected and the numbers (relative numbers) of live bacterial cells per well on test samples 1, 2, 4, and 5 when the number of live bacterial cells per well on test sample 3 (FD) was “1” were calculated in consideration of the dilution concentrations of those test samples.

[1] = system: trehalase derived from pig kidney; assay: Degradation by trehalase derived from pig kidney (glucose release); type: in vitro ADME; conditions: 0.01 mM to 10 mM substrate, 0.24 units/mL, pH 5.7, 37° C., 20 minutes
Description: Trehalose (TRH) or the 4-trehalosamine (4TA) from the <Purification process> of production example 10 was added to and mixed with 135 mM sodium citrate buffer solution (pH 5.7) so that the final concentration was 0 mM, 0.01 mM, 0.1 mM, 1 mM, or 10 mM. Into them, trehalase derived from pig kidney (0.24 units/mL, manufactured by Sigma-Aldrich) was added and left to react at 37° C. for 20 minutes. Into the solution after reaction, a triple amount of Glucose assay reagent (manufactured by Sigma-Aldrich) was added and left to react at room temperature for 15 minutes. After that, absorbance at 340 nm was measured with a plate reader Cytation 5 (manufactured by Bio Tek Instruments) and the amount of glucose released as degradation product was estimated. FIG. 19B is a zoomed-in view of FIG. 19A.

| Compound | degradation by cell extract liquid of 10 strains of KP4-TREH (high human trehalase expression) (human trehalase) | degradation by cell extract liquid of human pancreatic cancer cells KP4 (human trehalase) | change in blood glucose level (blood glucose level) | Numbers of live bacterial cells (relative numbers) (Bacillus subtilis 168) | protective effect on microorganisms, comparison (Bacillus subtilis 168; Bacillus subtilis, freeze-dried) | degradation by pig trehalase (release of glucose) [1] |
| --- | --- | --- | --- | --- | --- | --- |
| N[C@H]1[C@H](O)[C@@H](O)[C@@H](O[C@H]2O[C@H](CO)[C@@H](O)[C@H](O)[C@H]2O)O[C@@H]1CO [4-trehalosamine] | almost no degradation or decrease | neither trehalose nor 4-trehalosamine was degraded | no elevation in the blood glucose level was observed | 100 | stronger than when trehalose was added | not degraded by pig trehalase |
| OC[C@H]1O[C@H](O[C@H]2O[C@H](CO)[C@@H](O)[C@H](O)[C@H]2O)[C@H](O)[C@@H](O)[C@@H]1O [trehalose, reference compound] | almost disappeared after 8 hours | neither trehalose nor 4-trehalosamine was degraded | elevation in the blood glucose level was observed 30 minutes to 1 hour after administration | 10 | – | degraded in this reaction and release of glucose was observed |
